Assay results: a melting point compilation (Tetko et al.; mined from patent text by program, amines drawn as free bases though some values may be those of a salt)

First: NCC1COc2cc(Cl)cc(-c3ccccc3Cl)c2N1 (stereo not given)
Second: NC(=O)Cc1ccc2c(c1)C(=O)Cc1ccccc1O2
The melting point of the first is lower: 108 °C for the first, 152 to 154 °C for the second.

First: CCNc1nc(SC)ncc1CNc1c(F)c(OC)cc(OC)c1F
Second: CCOC(=O)c1c(COc2nccn2C)nc2cc(OC)c(OC)cc2c1-c1ccc(OC)c(OC)c1
The melting point of the first is lower: 95 to 99 °C for the first, 151 to 152 °C for the second.

Compared with `CC(C)NC1=NS(=O)(=O)c2cc(F)c(NC(C)C)cc2N1`, `CCOC(=O)C1=C(NC(=O)Nc2cc(C(=O)OC(C)C)c(Cl)cc2F)CCC1` is lower in melting point: 234 to 237 °C for the first, 146 to 149 °C for the second.

First: CC12CCC(O)CC1=CCC1C2CCC2(C)C(c3cncnc3)=CCC12 (stereo not given)
Second: CC(=O)OCC(=O)C1(OC(=O)CC(C)C)CCC2C3CC(C)C4=CC(=O)C=CC4(C)C3C(O)CC21C (stereo not given)
The melting point of the first is higher: 231 to 233 °C for the first, 172 °C for the second.

First: CC(=NC1CCCCC1)NC12CC3CC(CC(C3)C1)C2
Second: COc1cc(O)c(C=O)cc1C12CC3CC(CC(C3)C1)C2
The melting point of the first is lower: 185 to 187 °C for the first, 191 to 193 °C for the second.

First: c1cn2nc(N3CCCCC3)c3c(c2n1)CCCC3
Second: ON=C(CCN1CCN(c2ccccn2)CC1)c1ccc(F)cc1
The melting point of the first is lower: 95 °C for the first, 159 to 160 °C for the second.

First: CCc1cc(C(=O)c2ccccc2Cl)c(NC=C[N+](=O)[O-])s1
Second: CCC(C(=O)N(C)C)n1cc(Cl)c(-c2ccccc2C)n1 (stereo not given)
The melting point of the first is higher: 125 to 126 °C for the first, 49.5 to 52 °C for the second.

Compared with `CCCCCCCCSc1ccc(C=Cc2ccc([N+](=O)[O-])cc2)cc1`, `Clc1ccc(C=Cc2nc(CNc3ccc(CCCCn4ccnn4)cc3)co2)cc1Cl` is higher in melting point: 53 °C for the first, 76.8 to 78.8 °C for the second.

Compared with `NC(=O)c1ccc(N2CCN(Cc3cn4cc(Cl)ccc4n3)CC2)cc1`, `COc1ccc(OCC(O)CN2CCN(c3ccccc3C(=O)O)CC2)c(C(C)(C)C)c1` (stereo not given) is lower in melting point: 240 to 241 °C for the first, 171 to 172 °C for the second.

First: CCCCCCCCCCCCCCCCCCOc1cc(C(N)=O)cc(N(CC(=O)O)CC(=O)O)c1
Second: CCCCCCCCCCCCc1c2c(=O)c3cc(-c4cccs4)ccc3c2c(CCCCCCCCCCCC)c2c(=O)c3cc(-c4cccs4)ccc3c12
The melting point of the first is higher: 213 to 216 °C for the first, 205 to 206 °C for the second.

First: COc1cccc(C(C)c2ccc(-c3cnn4c(O)ncnc34)cc2)c1 (stereo not given)
Second: COc1ccc(-c2cc(-c3ccccc3F)c(C#N)c(C)n2)cc1
The melting point of the first is higher: 282 to 285 °C for the first, 152 to 153 °C for the second.

First: CNCc1coc(-c2cccc(C3=Nc4ccc(-n5cccc5)cc4NC(=O)C3)c2)n1
Second: CC(c1cccc(-c2ncc(OCCCN(C)C)cn2)c1)n1nc(-c2cccc(C#N)c2)ccc1=O (stereo not given)
The melting point of the first is higher: 182 to 183 °C for the first, 105 to 107 °C for the second.

Compared with `COC(=O)c1cc(Cl)ccc1NC(=O)N(C)C`, `COC(=O)c1ccc(OC)cc1NC(C)=O` is higher in melting point: 114 °C for the first, 123 to 126 °C for the second.

Compared with `O=C1CCCC(=O)N1c1cc(I)cc(I)c1`, `O=C1Cc2cc(C3=NNC(=O)SC3)ccc2N1` is higher in melting point: 177 to 178 °C for the first, > 310 °C for the second.

First: COc1cccc2c1C(C)(C)c1ccccc1C2
Second: COc1cccc2c(=O)c(O)coc12
The melting point of the first is lower: 62 to 64 °C for the first, 180 to 183 °C for the second.

First: Cn1c([N+](=O)[O-])cnc1CS(=O)(=O)c1ccccn1
Second: Cc1ccccc1N(C)c1nc(=O)c2cccnc2s1
The melting point of the first is lower: 187 °C for the first, 208 to 209 °C for the second.

First: CC(=O)Nc1ccc(C#CCCN2CC=C(c3ccccc3)CC2)cc1
Second: O=c1ccc(-c2c(-c3ccccc3)nn3ccccc23)nn1C1=C(CCO)CCCC1
The melting point of the first is lower: 172 to 173 °C for the first, 198 to 199 °C for the second.

First: Nc1nc2ccccc2c2c1ncn2CCOCCCc1cccnc1
Second: CCCc1nn(-c2ccc(C(F)(F)F)cn2)cc1CCCOc1ccc(CCC(=O)O)cc1
The melting point of the first is higher: 125 to 128 °C for the first, 118 to 119 °C for the second.

Compared with `CC(=O)C(=CNc1cc(Cl)c(Cl)c(C(=O)O)c1Cl)C(C)=O`, `C=CC1(N)CN=C(c2ccc(Cl)c(N(C)C)c2F)N=C1C(=O)OC` (stereo not given) is lower in melting point: 242 to 244 °C for the first, 136 to 137 °C for the second.

Compared with `CCCC(=O)Oc1ccc2nc(NC(=O)Nc3ccccc3)sc2c1`, `CCCCc1oc2ccccc2c1C(=O)Nc1ccc2cc(OCC(=O)OC)ccc2c1` is lower in melting point: 207 to 211 °C for the first, 131 to 133 °C for the second.

First: Cc1cc([N+](=O)[O-])ccc1N=C1C2CC3CC(C2)CC(C3)N1CC(C)C
Second: CC(=O)NC[C@H]1CN(c2ccc(N3CCC(O)(CNC4CC4)CC3)c(F)c2)C(=O)O1
The melting point of the first is lower: 101 to 102 °C for the first, 160 to 162 °C for the second.

First: O=C1Nc2ccc(Cl)cc2C1(O)Cc1ccccc1 (stereo not given)
Second: CSCCN1C(=O)N2CCOC2(c2ccccc2)c2cc(Cl)ccc21 (stereo not given)
The melting point of the first is higher: 204 to 205 °C for the first, 145 to 146 °C for the second.

First: O=C(Cn1ccnc1)c1nccs1
Second: O=C(c1cccs1)c1cnn2c(-c3cccc(-c4ccn(Cc5ccccn5)n4)c3)ccnc12
The melting point of the first is higher: 109 to 112 °C for the first, 66 °C for the second.

First: Cc1nc2c3c(c(C(=O)NCC(C)O)cc2n1C)CCC1(Cc2ccccc2C1)N3 (stereo not given)
Second: CC(Cc1c[nH]c2ccccc12)NC(=O)C=C1CCC(c2cccc(F)c2)(N(C)C)CC1 (stereo not given)
The melting point of the first is higher: 224 to 225 °C for the first, 163 to 166 °C for the second.

First: CS(=O)(=O)c1cc(Cl)ccc1C(=O)c1cnoc1C1CC1
Second: O=c1[nH]ncc(Cl)c1NCCCN1CCC(c2noc3cc(F)ccc23)CC1
The melting point of the first is lower: 183 to 185 °C for the first, 198 to 200 °C for the second.

First: COc1ccc(CNC(SC)=C(C#N)C#N)cc1
Second: CSC(=NC#N)Nc1ccc(C#N)cc1
The melting point of the first is lower: 100 to 101 °C for the first, 220 to 225 °C for the second.

Compared with `CC(c1oc2ccccc2c(=O)c1-c1cccc(F)c1)n1ncc2c(Cl)ccnc21` (stereo not given), `CC(C)(Cc1ccccc1)C(NC(=O)c1cccc(Cl)c1)Nc1c(Nc2cccnc2)c(=O)c1=O` (single isomer, unassigned; (-)) is higher in melting point: 173 to 176 °C for the first, 178 to 179 °C for the second.

Compared with `COCn1ccnc1C(O)(c1ccccc1)c1cccc(C(F)(F)F)c1` (stereo not given), `COC(=O)c1ccc(-c2nc(-c3cccc(C(F)(F)F)c3)co2)cc1` is lower in melting point: 152 to 154 °C for the first, 134 to 135 °C for the second.

First: CC(C)c1ccc2cc(OCCF)ccc2c1
Second: COc1ccc(-c2nc3cnccc3[nH]2)c(OC(C)C)c1
The melting point of the first is lower: 46 to 48 °C for the first, 220 °C for the second.

First: COc1ccc2c(c1N)CN(S(C)(=O)=O)CC(=O)N2
Second: COc1cnc(CS(C)(=O)=O)nc1O
The melting point of the first is higher: 232 to 233 °C for the first, 230 °C for the second.

First: Cn1cc(C2=C(c3cn(CCC(N)=O)c4ccccc34)C(=O)NC2=O)c2ccccc21
Second: CN(C)CCC(=O)c1c(-c2ccccc2)[nH]c2ccccc12
The melting point of the first is higher: 243 to 247 °C for the first, 136 to 138 °C for the second.

First: Cc1cc(CN(C(=O)CCl)c2c(C)cccc2C)on1
Second: COc1cc(CCCC(=O)O)ccc1C
The melting point of the first is higher: 78 to 82 °C for the first, 69 to 70 °C for the second.

First: CC(C)c1cc(C#N)cc(C(=O)Nc2ccn(C)n2)n1
Second: CC(C)(C)OC(=O)COC1CCN(C(=O)[C@H](Cc2ccc(OC(C)(C)C)cc2)NC(=O)c2ccc(C#N)cn2)CC1
The melting point of the first is higher: 174 °C for the first, 122 to 123 °C for the second.

First: NC(=S)NNC(=O)CCCCc1ccccc1
Second: O=C(O)COCc1ccccc1
The melting point of the first is higher: 140 to 141 °C for the first, 81 to 83 °C for the second.

First: COC(=O)C(Cc1ccc(OCCc2nc(-c3ccccc3)oc2C)cc1)C(N)=O (stereo not given)
Second: O=C1NC(c2ccccc2)=C2C(=O)OC(c3ccc(Br)cc3)=C12
The melting point of the first is lower: 155 °C for the first, 295 °C for the second.

Compared with `Cc1ccc2[nH]c3c(c2c1)CC(C)CC3` (stereo not given), `CC(=O)N(C)C1CCc2c([nH]c3ccccc23)C1` (stereo not given) is higher in melting point: 112 °C for the first, 215 to 216 °C for the second.

First: CON=C(C(C)=NN=Cc1ccccc1C(=NOC)C1=NOCCO1)c1ccccc1
Second: O=C(O)c1ccccc1NC(=S)Cc1ccccc1
The melting point of the first is lower: 136 °C for the first, 166 to 167 °C for the second.

First: Nc1ccc(-c2nc3ccccc3s2)cc1Br
Second: O=C(O)Cc1cccc(Oc2cccc(-c3nnc(Nc4ccc(Cl)c(Cl)c4)s3)c2)c1
The melting point of the first is lower: 160 to 161 °C for the first, 183 to 184 °C for the second.

First: COc1ccc(C2=NN(CCCCCCCCBr)C(=O)[C@H]3CCCC[C@@H]23)cc1OC (relative stereo)
Second: COc1ccc(C2=NN(Cc3ccc(CC(=O)O)cc3)C(=O)[C@H]3CCCC[C@@H]23)cc1OC (relative stereo)
The melting point of the first is lower: 58 to 60 °C for the first, 164 to 166 °C for the second.

First: CN1Cc2c(-c3noc(CNC4CC4)n3)ncn2-c2ccc(F)cc2C1=O
Second: Clc1ccccc1-c1nc2occn2c1-c1ccnc(N[C@H]2CN3CCC2CC3)n1
The melting point of the first is higher: 176 to 178 °C for the first, 132 to 134 °C for the second.

Compared with `CCNc1ccc(F)c(-c2cccnc2)c1F`, `CCOc1cc(OCC)c2c(=O)c(OCC)c(-c3ccccc3)oc2c1` is higher in melting point: 79 to 80 °C for the first, 111 to 114 °C for the second.

Compared with `S=C(NCCC1=CCCCC1)Nc1nc2ccccc2[nH]1`, `NC(CCNc1ccccc1)=NO` is lower in melting point: 178 to 180 °C for the first, 91 to 91.5 °C for the second.

First: Clc1cccc(Oc2ccc3[nH]ccc3c2)n1
Second: COc1ccc(-c2ncsc2-c2ccc(OC)cc2)cc1
The melting point of the first is higher: 117 to 118 °C for the first, 98 to 99 °C for the second.

Compared with `NCCC1CCC(C(O)(P(=O)(O)O)P(=O)(O)O)CC1` (stereo not given), `COc1ccc2c(c1)cc(C(=O)Nc1nc(-c3cc(OC)c(C)cc3OC)c(CCC3CCCCC3)s1)n2CC(=O)O` is lower in melting point: 226 to 230 °C for the first, 163 to 165 °C for the second.

First: COC(=O)c1c(-c2cc(OC)c(OC)c(OC)c2)c2cc(OC)c(CC#N)cc2c(=O)n1-c1ccc(NC(=O)OC(C)(C)C)cc1
Second: CCOc1cc(-c2cc(C(F)(F)F)n3ncc(C(=O)Nc4cccc(S(N)(=O)=O)c4)c3n2)ccc1C(F)(F)F
The melting point of the first is lower: 136 to 138 °C for the first, 253 °C for the second.

First: CC1(C)Oc2ccc(OCc3ccccc3)cc2C(O)C1Br (stereo not given)
Second: O=c1ccocc1OCc1ccccc1
The melting point of the first is higher: 126 to 128 °C for the first, 82 to 85 °C for the second.

First: Cc1ccc(S(=O)(=O)NC(=O)NCCCCCCNC(=O)NS(=O)(=O)c2ccc(C)o2)o1
Second: O=C(CCCN1CCC2(CC(O)c3cc(F)ccc32)C1)c1ccc(F)cc1 (stereo not given)
The melting point of the first is lower: 115 to 116 °C for the first, 143 to 145 °C for the second.

First: COc1cc(Br)cc(-c2ccc3nonc3c2)c1
Second: Clc1cc(CCc2ccccn2)c2oc(-c3cccs3)nc2c1
The melting point of the first is higher: 135 to 137 °C for the first, 90 to 91 °C for the second.

First: N#Cc1c(SC(F)(F)F)c(NC(=O)C(F)(F)F)n(-c2c(Cl)cc(C(F)(F)F)cc2Cl)c1Cl
Second: CCOCn1c(-c2ccc(Cl)cc2)c(C#N)c(Sc2ccc(Cl)cc2)c1C(F)(F)F
The melting point of the first is higher: 190 °C for the first, 98 to 100 °C for the second.

Compared with `Nc1nc2c(sc(=O)n2CCCCC(=O)O)c(=O)[nH]1`, `CC(=O)OC1CSC(Oc2cncc(-c3cc4ccccc4o3)c2)C(OC(C)=O)C1OC(C)=O` (stereo not given) is lower in melting point: 263 to 265 °C for the first, 125 °C for the second.
